From ChEMBL document CHEMBL1795325, “Studying synergism of methyl linked cyclohexyl thiophenes with triazole: synthesis and their cdk5/p25 inhibition activity” (Eur J Med Chem, 2011) come the findings set out here.

Data set [1] deals with Cyclin-dependent kinase 5/CDK5 activator 1 (Homo sapiens, UniProt Q00535). Type of data set: protein-complex assay.
A further data set concerns Vero. Kind of data set: Cytotoxicity against african green monkey Vero C1008 cells at 6.25 to 50 ug/ml by neutral red uptake assay. The data set is classed as cell-based. The note with it: chlorocebus sabaeus.

Usually IC50 stands for the point on the concentration scale where inhibition reaches its midpoint.

Cyclin-dependent kinase 5/CDK5 activator 1, sequence (Q00535 whole entry): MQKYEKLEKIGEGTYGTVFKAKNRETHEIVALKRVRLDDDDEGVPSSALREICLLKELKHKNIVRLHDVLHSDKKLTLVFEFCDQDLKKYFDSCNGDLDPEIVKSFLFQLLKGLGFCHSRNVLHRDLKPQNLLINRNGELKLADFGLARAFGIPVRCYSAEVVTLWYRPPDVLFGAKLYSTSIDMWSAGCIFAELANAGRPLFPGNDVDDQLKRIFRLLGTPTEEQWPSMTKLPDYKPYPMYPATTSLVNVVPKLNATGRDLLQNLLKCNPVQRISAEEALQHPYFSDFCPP
Cyclin-dependent kinase 5/CDK5 activator 1, sequence (Q15078 whole entry, further chain): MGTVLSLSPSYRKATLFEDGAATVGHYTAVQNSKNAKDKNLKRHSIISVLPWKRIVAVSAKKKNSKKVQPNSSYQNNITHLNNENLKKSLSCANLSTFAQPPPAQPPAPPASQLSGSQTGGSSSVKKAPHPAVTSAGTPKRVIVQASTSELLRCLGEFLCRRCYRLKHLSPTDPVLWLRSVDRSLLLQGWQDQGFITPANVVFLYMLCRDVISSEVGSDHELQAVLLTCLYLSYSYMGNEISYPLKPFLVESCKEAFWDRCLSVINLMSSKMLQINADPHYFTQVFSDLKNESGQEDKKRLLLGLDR

Turning to `N#CCSc1nnc(Cc2c(NC(=O)CCl)sc3c2CCCC3)n1NC(=O)c1ccccc1`, in data set [1], the half-inhibitory concentration (IC50) was determined as 657 nM. In addition, the Activity entry with Vero was “Non-toxic”. As to `CC(=O)Nn1c(Cc2c(NC(=O)CCl)sc3c2CCCC3)nnc1SCSc1nnc(Cc2c(NC(=O)CCl)sc3c2CCCC3)n1NC(C)=O`, the IC50 in data set [1] came to 849 nM. For the same compound, the Activity entry in the data set with Vero is on record as “Non-toxic”. Consider `CC(=O)NNC(=O)CSc1nnc(Cc2c(NC(=O)CCl)sc3c2CCCC3)n1NC(C)=O`, for which the midpoint of inhibition in data set [1], the IC50, lay at 454 nM. In addition, the Activity result in the data set on Vero is reported as “Non-toxic”. On to `O=C(Cc1c(NC(=O)CCl)sc2c1CCCC2)NNC(=S)[S-].[K+]`, for which it took 247 nM to reach half-maximal inhibition in data set [1] (IC50). Besides, the Activity result in the data set on Vero is given as “Non-toxic”.

For `Nn1c(S)nnc1Cc1c(NCCC(=O)O)sc2c1CCCC2`, the IC50 in data set [1] was 268 nM. In the data set on Vero, the Activity result is listed as “Non-toxic”. The matching figures for `O=C(CCl)NNC(=O)CSc1nnc(Cc2c(NC(=O)CCl)sc3c2CCCC3)n1NC(=O)c1ccc(Cl)cc1`: 229 nM and “Non-toxic”.

For `CC(=O)Nn1c(Cc2c(NC(=O)CCl)sc3c2CCCC3)nnc1SCC(=O)N/N=C/c1ccccc1`, in data set [1], the half-inhibitory concentration (IC50) was determined as 336 nM. The Activity entry with Vero is recorded as “Non-toxic”. Take `CC(=O)NNC(=O)CSc1nnc(Cc2c(NC(=O)CCl)sc3c2CCCC3)n1NC(=O)c1ccccc1`: half-maximal inhibition in data set [1] (IC50) required 350 nM. The Activity result in the data set with Vero was “Non-toxic”. The compound `CC(=O)Nn1c(Cc2c(NC(=O)CCl)sc3c2CCCC3)n[nH]c1=S` had an IC50 in data set [1] of 689 nM. The Activity entry in the data set with Vero is “Non-toxic”. `COC(=O)CSc1nnc(Cc2c(NC(=O)CCl)sc3c2CCCC3)n1NC(=O)c1ccccc1` yielded an IC50 in data set [1] of 681 nM. The Activity entry with Vero is recorded as “Non-toxic”. Regarding `O=C(CCl)Nc1sc2c(c1Cc1nnc(SCSc3nnc(Cc4c(NC(=O)CCl)sc5c4CCCC5)n3NC(=O)c3ccccc3)n1NC(=O)c1ccccc1)CCCC2`, in data set [1], the IC50 amounted to 669 nM. The Activity entry in the data set with Vero is “Non-toxic”. In the case of `Nn1c(S)nnc1CSc1nnc(Cc2c(NC(=O)CCl)sc3c2CCCC3)n1NC(=O)c1ccccc1`, the IC50 in data set [1] was found to be 6180 nM. Moreover, in the data set with Vero, the Activity result was “Non-toxic”. The matching figures for `COC(=O)CSc1nnc(Cc2c(NC(=O)CCl)sc3c2CCCC3)n1NC(C)=O`: 695 nM and “Non-toxic”. In data set [1], `O=C(O)CCNc1sc2c(c1CC(=O)NNC(=S)[S-])CCCC2.[K+]` displayed an IC50 of 397 nM. Further, in the data set with Vero, the Activity result was “Non-toxic”.

Consider `CC(=O)Nc1sc2c(c1CC(=O)NNC(=S)[S-])CCCC2.[K+]`, for which, in data set [1], half-maximal inhibition (IC50) required 346 nM. Also, the Activity entry in the data set with Vero is “Non-toxic”. In the case of `O=C(CSc1nnc(Cc2c(NC(=O)CCl)sc3c2CCCC3)n1NC(=O)c1ccc(Cl)cc1)NNC(=O)c1ccccc1`, the concentration for half-maximal inhibition (IC50) in data set [1] stood at 617 nM. Besides, the Activity result in the data set on Vero is listed as “Non-toxic”. The matching figures for `CC(=O)Nn1c(Cc2c(NC(=O)CCl)sc3c2CCCC3)nnc1SCc1n[nH]c(=S)n1N`: 4030 nM and “Non-toxic”. As to `O=C(CSc1nnc(Cc2c(NC(=O)CCl)sc3c2CCCC3)n1NC(=O)c1ccccc1)NNC(=O)c1ccccc1`, in data set [1], the IC50 was 468 nM. In addition, the Activity entry in the data set with Vero was “Non-toxic”. `Nn1c(CSc2nnc(Cc3c(NC(=O)c4ccccc4)sc4c3CCCC4)n2NC(=O)c2ccccc2)n[nH]c1=S`: it took 4590 nM to reach half-maximal inhibition in data set [1] (IC50).

`Nn1c(S)nnc1Cc1c(NC(=O)c2ccccc2)sc2c1CCCC2` returned an IC50 in data set [1] of 621 nM. The Activity result in the data set with Vero is recorded as “Non-toxic”. In turn, `O=C(O)CCNc1sc2c(c1Cc1nnc(SCC(=O)NNC(=O)CCl)n1NC(=O)c1ccccc1)CCCC2` registered an IC50 in data set [1] of 362 nM.

For `CC(=O)Nc1sc2c(c1Cc1nnc(SCC(=O)N/N=C/c3ccccc3)n1NC(C)=O)CCCC2`, in data set [1], the concentration for half-maximal inhibition (IC50) was 453 nM. For `COC(=O)CSc1nnc(Cc2c(NC(C)=O)sc3c2CCCC3)n1NC(C)=O`, half-maximal inhibition in data set [1] (IC50) required 389 nM. In data set [1], `CC(=O)Nc1sc2c(c1Cc1nnc(SCC(=O)NN)n1NC(C)=O)CCCC2` registered a half-inhibitory concentration (IC50) of 249 nM. On to `CC(=O)Nc1sc2c(c1Cc1nnc(S)n1NC(C)=O)CCCC2`, for which, in data set [1], the half-inhibitory concentration (IC50) was found to be 584 nM.

In data set [1], `N#CCSc1nnc(Cc2c(NCCC(=O)O)sc3c2CCCC3)n1NC(=O)c1ccc(Cl)cc1` came in with a half-maximal inhibitory concentration (IC50) of 422 nM. As to `O=C(CSc1nnc(Cc2c(NC(=O)c3ccccc3)sc3c2CCCC3)n1NC(=O)c1ccc(Cl)cc1)N/N=C/c1ccccc1`, in data set [1], it took 217 nM to reach half-maximal inhibition (IC50). As for `Nn1c(S)nnc1CSc1nnc(Cc2c(NCCC(=O)O)sc3c2CCCC3)n1NC(=O)c1ccc(Cl)cc1`, half-maximal inhibition in data set [1] (IC50) required 5850 nM.

Take `CC(=O)Nn1c(Cc2c(NC(=O)CCl)sc3c2CCCC3)nnc1SCC(=O)NNC(=O)CCl`: the IC50 in data set [1] worked out at 452 nM. The Activity entry in the data set on Vero is on record as “Non-toxic”.

Take `CC(=O)Nn1c(Cc2c(NC(=O)c3ccccc3)sc3c2CCCC3)nnc1SCC(=O)NNC(=O)CCl`: 358 nM corresponded to half-maximal inhibition in data set [1] (IC50). `CC(=O)NNC(=O)CSc1nnc(Cc2c(NC(=O)CCl)sc3c2CCCC3)n1NC(=O)c1ccc(Cl)cc1` returned a 50% inhibitory concentration (IC50) in data set [1] of 468 nM. For the same compound, the Activity entry with Vero is “Non-toxic”. As to `CC(=O)Nc1sc2c(c1Cc1n[nH]c(=S)n1NC(=O)c1ccccc1)CCCC2`, half-maximal inhibition in data set [1] (IC50) was put at 572 nM. On to `N#CCSc1nnc(Cc2c(NC(=O)c3ccccc3)sc3c2CCCC3)n1NC(=O)c1ccccc1`, for which the IC50 in data set [1] stood at 486 nM.

`CC(=O)Nn1c(Cc2c(NCCC(=O)O)sc3c2CCCC3)nnc1SCC(=O)N/N=C/c1ccccc1` registered a concentration for half-maximal inhibition (IC50) in data set [1] of 535 nM. Compound `CC(=O)Nc1sc2c(c1Cc1nnc(SCC#N)n1NC(=O)c1ccc(Cl)cc1)CCCC2` displayed an IC50 in data set [1] of 415 nM. In turn, `O=C(CCl)Nc1sc2c(c1Cc1n[nH]c(=S)n1NC(=O)c1ccc(Cl)cc1)CCCC2` had a half-inhibitory concentration (IC50) in data set [1] of 343 nM. Moreover, the Activity result in the data set on Vero is “Non-toxic”. On to `O=C(O)CCNc1sc2c(c1Cc1nnc(SCC(=O)NNC(=O)c3ccccc3)n1NC(=O)c1ccc(Cl)cc1)CCCC2`, for which half-maximal inhibition in data set [1] (IC50) required 271 nM.

In turn, `NNC(=O)CSc1nnc(Cc2c(NCCC(=O)O)sc3c2CCCC3)n1NC(=O)c1ccccc1` registered an IC50 in data set [1] of 455 nM. `O=C(CCl)NNC(=O)CSc1nnc(Cc2c(NC(=O)CCl)sc3c2CCCC3)n1NC(=O)c1ccccc1` yielded a 50% inhibitory concentration (IC50) in data set [1] of 532 nM. Also, the Activity result in the data set with Vero was “Non-toxic”. `O=C(O)CCNc1sc2c(c1Cc1nnc(SCC(=O)N/N=C/c3ccccc3)n1NC(=O)c1ccc(Cl)cc1)CCCC2` displayed an IC50 in data set [1] of 258 nM.

Take `CC(=O)Nc1sc2c(c1Cc1nnc(SCC(=O)N/N=C/c3ccccc3)n1NC(=O)c1ccc(Cl)cc1)CCCC2`: half-maximal inhibition in data set [1] (IC50) was put at 213 nM.

The compound `O=C(O)CCNc1sc2c(c1Cc1n[nH]c(=S)n1NC(=O)c1ccccc1)CCCC2` returned an IC50 in data set [1] of 674 nM. Compound `O=C(CCl)Nc1sc2c(c1Cc1n[nH]c(=S)n1NC(=O)c1ccccc1)CCCC2` showed an IC50 in data set [1] of 751 nM. In addition, in the data set on Vero, the Activity entry is recorded as “Non-toxic”. The compound `CC(=O)Nc1sc2c(c1Cc1nnc(SCC(=O)NNC(=O)CCl)n1NC(=O)c1ccccc1)CCCC2` showed a half-maximal inhibitory concentration (IC50) in data set [1] of 643 nM. For the compound `COC(=O)CSc1nnc(Cc2c(NCCC(=O)O)sc3c2CCCC3)n1NC(=O)c1ccccc1`, half-maximal inhibition in data set [1] (IC50) required 641 nM.

The compound `CC(=O)Nc1sc2c(c1Cc1nnc(SCSc3nnc(Cc4c(NC(C)=O)sc5c4CCCC5)n3NC(=O)c3ccc(Cl)cc3)n1NC(=O)c1ccc(Cl)cc1)CCCC2` gave an IC50 in data set [1] of 367 nM.

On to `CC(=O)Nc1sc2c(c1Cc1nnc(SCC(=O)NNC(=O)CCl)n1NC(=O)c1ccc(Cl)cc1)CCCC2`, for which, in data set [1], the half-maximal inhibitory concentration (IC50) was determined as 260 nM. In data set [1], `O=C(CCl)NNC(=O)CSc1nnc(Cc2c(NC(=O)c3ccccc3)sc3c2CCCC3)n1NC(=O)c1ccccc1` yielded an IC50 of 547 nM. The compound `Nn1c(S)nnc1CSc1nnc(Cc2c(NC(=O)CCl)sc3c2CCCC3)n1NC(=O)c1ccc(Cl)cc1` yielded an IC50 in data set [1] of 2860 nM. For the same compound, the Activity result in the data set with Vero is “Non-toxic”. The matching figures for `CC(=O)Nc1sc2c(c1Cc1nnc(S)n1N)CCCC2`: 386 nM and “Non-toxic”. As for `CC(=O)Nn1c(Cc2c(NCCC(=O)O)sc3c2CCCC3)n[nH]c1=S`, the IC50 in data set [1] is 433 nM. Take `O=C(Nc1sc2c(c1Cc1nnc(S)n1NC(=O)c1ccc(Cl)cc1)CCCC2)c1ccccc1`: inhibition in data set [1] was half-maximal at 183 nM (IC50). `COC(=O)CSc1nnc(Cc2c(NCCC(=O)O)sc3c2CCCC3)n1NC(C)=O`: the IC50 in data set [1] worked out at 733 nM. Compound `COC(=O)CSc1nnc(Cc2c(NC(=O)c3ccccc3)sc3c2CCCC3)n1NC(C)=O` registered an IC50 in data set [1] of 567 nM.

As to `O=C(CCl)NNC(=O)CSc1nnc(Cc2c(NC(=O)c3ccccc3)sc3c2CCCC3)n1NC(=O)c1ccc(Cl)cc1`, the IC50 in data set [1] came to 340 nM. Same read-out and setting: next, `O=C(Nc1sc2c(c1Cc1nnc(SCSc3nnc(Cc4c(NC(=O)c5ccccc5)sc5c4CCCC5)n3NC(=O)c3ccc(Cl)cc3)n1NC(=O)c1ccc(Cl)cc1)CCCC2)c1ccccc1`: 627 nM. In turn, `O=C(CCl)Nc1sc2c(c1Cc1nnc(SCSc3nnc(Cc4c(NC(=O)CCl)sc5c4CCCC5)n3NC(=O)c3ccc(Cl)cc3)n1NC(=O)c1ccc(Cl)cc1)CCCC2` returned an IC50 in data set [1] of 340 nM. For the same compound, the Activity entry in the data set on Vero is reported as “Non-toxic”. As for `CC(=O)Nn1c(Cc2c(NC(=O)c3ccccc3)sc3c2CCCC3)nnc1SCc1nnc(S)n1N`, the midpoint of inhibition in data set [1], the IC50, lay at 6140 nM.

The compound `COC(=O)CSc1nnc(Cc2c(NC(=O)CCl)sc3c2CCCC3)n1NC(=O)c1ccc(Cl)cc1` came in with an IC50 in data set [1] of 443 nM. Also, the Activity result with Vero is “Non-toxic”. In data set [1], `CC(=O)Nn1c(Cc2c(NCCC(=O)O)sc3c2CCCC3)nnc1SCC#N` returned an IC50 of 641 nM. The same measure, in the same setting: next, `N#CCSc1nnc(Cc2c(NC(=O)c3ccccc3)sc3c2CCCC3)n1NC(=O)c1ccc(Cl)cc1`: 551 nM; `O=C(Nc1sc2c(c1Cc1nnc(S)n1NC(=O)c1ccccc1)CCCC2)c1ccccc1`: 891 nM. Regarding `CC(=O)Nn1c(Cc2c(NC(=O)CCl)sc3c2CCCC3)nnc1SCC(=O)NNC(=O)c1ccccc1`, half-maximal inhibition in data set [1] (IC50) required 363 nM. Also, the Activity entry in the data set with Vero is listed as “Non-toxic”.

As to `CC(=O)NNC(=O)CSc1nnc(Cc2c(NCCC(=O)O)sc3c2CCCC3)n1NC(=O)c1ccccc1`, inhibition in data set [1] was half-maximal at 467 nM (IC50).

Consider `O=C(Cc1c(NC(=O)c2ccccc2)sc2c1CCCC2)NNC(=S)[S-].[K+]`, for which, in data set [1], the half-inhibitory concentration (IC50) is 373 nM. Also, in the data set with Vero, the Activity entry was “Non-toxic”.
